This is an account of results in patent US11084829B2, “Ubiquitin-specific-processing protease 7 (USP7) modulators and uses thereof” (RAPT THERAPEUTICS, INC., priority 2018, dated 2021).

In the experiment the target is USP7 (Homo sapiens, UniProt Q93009). Nature of the experiment: USP7 inhibitory potency (IC50). It is filed as biochemical. As for the experimental part:
Activity for compounds described herein is provided in Table 2, wherein potency levels are provided as follows: (Potency: USP7 IC50: A<0.01 μM; B=0.01-0.1 μM; C=>0.1 μM.

Where only a bound is given, the exact number is not on record here.

USP7, sequence (Q93009 whole entry): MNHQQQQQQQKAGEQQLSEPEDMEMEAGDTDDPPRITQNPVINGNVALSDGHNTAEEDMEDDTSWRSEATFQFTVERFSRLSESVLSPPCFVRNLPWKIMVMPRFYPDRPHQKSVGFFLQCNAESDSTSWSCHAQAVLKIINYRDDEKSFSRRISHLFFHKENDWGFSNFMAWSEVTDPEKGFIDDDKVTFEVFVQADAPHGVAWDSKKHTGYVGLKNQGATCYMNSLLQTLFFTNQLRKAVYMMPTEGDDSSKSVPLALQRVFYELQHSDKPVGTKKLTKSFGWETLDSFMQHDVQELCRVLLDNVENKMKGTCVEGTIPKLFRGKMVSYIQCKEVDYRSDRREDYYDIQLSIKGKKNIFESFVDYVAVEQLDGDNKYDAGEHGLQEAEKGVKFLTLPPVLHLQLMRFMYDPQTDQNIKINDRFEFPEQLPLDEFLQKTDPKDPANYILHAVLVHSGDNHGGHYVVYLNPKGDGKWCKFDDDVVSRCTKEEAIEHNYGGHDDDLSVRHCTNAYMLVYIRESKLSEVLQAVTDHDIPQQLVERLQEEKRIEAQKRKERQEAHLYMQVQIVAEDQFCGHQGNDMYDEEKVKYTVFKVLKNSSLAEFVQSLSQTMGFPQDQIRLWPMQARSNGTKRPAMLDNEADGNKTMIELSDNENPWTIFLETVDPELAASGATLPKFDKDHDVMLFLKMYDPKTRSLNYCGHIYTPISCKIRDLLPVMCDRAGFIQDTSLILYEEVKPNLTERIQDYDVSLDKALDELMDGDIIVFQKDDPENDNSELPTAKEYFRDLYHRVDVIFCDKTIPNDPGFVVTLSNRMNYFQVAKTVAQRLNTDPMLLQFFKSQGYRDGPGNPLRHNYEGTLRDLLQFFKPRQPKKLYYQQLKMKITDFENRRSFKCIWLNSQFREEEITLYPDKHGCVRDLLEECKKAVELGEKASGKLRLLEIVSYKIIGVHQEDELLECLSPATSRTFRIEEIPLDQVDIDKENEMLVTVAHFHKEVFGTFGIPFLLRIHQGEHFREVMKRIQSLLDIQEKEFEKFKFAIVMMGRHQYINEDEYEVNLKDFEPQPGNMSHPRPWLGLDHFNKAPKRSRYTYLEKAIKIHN

Regarding `Cc1cc(Cl)cc(-c2ncnc3cc(CN4CC(C(F)F)CC4=O)sc23)c1C[C@@H]1CNCC(C)(C)O1` (stereo partly drawn) [Example 228, 1-((4-(5-chloro-2-(((R)-6,6-dimethylmorpholin-2-yl)methyl)-3-methylphenyl)thieno[3,2-d]pyrimidin-6-yl)methyl)-4-(difluoromethyl)pyrrolidin-2-one], the half-inhibitory concentration (IC50) – broadly, the concentration that inhibits the measured activity by half – lay in the range of 0.01 to 0.1 µM. Turning to `Cc1cc(Cl)cc(-c2ncnc3cc(CN4CCOCC4=O)sc23)c1CC1CNCCO1` (stereo not shown) [Example 172, 4-((4-(5-chloro-3-methyl-2-(morpholin-2-ylmethyl)phenyl)thieno[3,2-d]pyrimidin-6-yl)methyl)morpholin-3-one], the IC50 was above 0.1 µM.

Compound `Cc1cc(Cl)cc(-c2ncnc3ccsc23)c1CC1CNCCO1` (stereo not shown) [Example 173, 2-(4-chloro-2-methyl-6-(thieno[3,2-d]pyrimidin-4-yl)benzyl)morpholine] displayed an IC50 above 0.1 µM. In the case of `Cc1cc(Cl)cc(-c2ncnc3cc(CN4C(=O)C5CC5C4=O)sc23)c1C[C@@H]1CNC[C@@H](C)O1` (stereo partly drawn) [Example 155, 3-((4-(5-chloro-3-methyl-2-(((2R,6R)-6-methylmorpholin-2-yl)methyl)phenyl)thieno[3,2-d]pyrimidin-6-yl)methyl)-3-azabicyclo[3.1.0]hexane-2,4-dione], the IC50 was below 0.01 µM. Under `CC1(C)CNCC(Cc2c(Cl)cc(Cl)cc2-c2ccnc3cc(CN4C(=O)C5CC5C4=O)sc23)O1` (stereo not shown) [Example 139, 3-((7-(3,5-dichloro-2-((6,6-dimethylmorpholin-2-yl)methyl)phenyl)thieno[3,2-b]pyridin-2-yl)methyl)-3-azabicyclo[3.1.0]hexane-2,4-dione] stands below 0.01 µM; under `Cc1cc(Cl)cc(-c2ccnc3cc(CN4C(=O)C5C(C4=O)C5(C)C)sc23)c1CC1CNCCO1` (stereo not shown) [Example 103, 3-((7-(5-chloro-3-methyl-2-(morpholin-2-ylmethyl)phenyl)thieno[3,2-b]pyridin-2-yl)methyl)-6,6-dimethyl-3-azabicyclo[3.1.0]hexane-2,4-dione], below 0.01 µM; under `Cc1cc(Cl)cc(-c2ncnc3cc(CN4C(=O)C5CC5C4=O)sc23)c1CN1[C@@H](C)CN(C(=O)C(F)(F)F)C[C@@H]1C` (stereo partly drawn) [Example 84, 3-((4-(5-chloro-2-(((2S,6S)-2,6-dimethyl-4-(2,2,2-trifluoroacetyl)piperazin-1-yl)methyl)-3-methylphenyl)thieno[3,2-d]pyrimidin-6-yl)methyl)-3-azabicyclo[3.1.0]hexane-2,4-dione], below 0.01 µM. `Cc1cc(Cl)cc(-c2ncnc3cc(CN4C(=O)CC(C)NC4=O)sc23)c1C[C@@H]1CNCCO1` (stereo partly drawn) [Example 248, 3-((4-(5-chloro-3-methyl-2-(((R)-morpholin-2-yl)methyl)phenyl)thieno[3,2-d]pyrimidin-6-yl)methyl)-6-methyldihydropyrimidine-2,4(1H,3H)-dione] yielded an IC50 below 0.01 µM. The figure for `Cc1cc(Cl)cc(-c2ncnc3cc(CN4C(=O)C5C(C4=O)C5(C)C)sc23)c1CN1[C@@H](C)CNC[C@@H]1C` (stereo partly drawn) [Example 56, 3-((4-(5-chloro-2-(((2S,6S)-2,6-dimethylpiperazin-1-yl)methyl)-3-methylphenyl)thieno[3,2-d]pyrimidin-6-yl)methyl)-6,6-dimethyl-3-azabicyclo[3.1.0]hexane-2,4-dione] is 0.01 to 0.1 µM. `Cc1cc(Cl)cc(-c2ccnc3cc(CN4C(=O)CCC4C(F)(F)F)sc23)c1CC1CNCCO1` (stereo not shown) [Example 114, 1-((7-(5-chloro-3-methyl-2-(morpholin-2-ylmethyl)phenyl)thieno[3,2-b]pyridin-2-yl)methyl)-5-(trifluoromethyl)pyrrolidin-2-one] yielded an IC50 of 0.01 to 0.1 µM. `Cc1cc(Cl)cc(-c2ncnc3cc(Cn4c(=O)ccn(CC(F)(F)F)c4=O)sc23)c1CC1CNCCO1` (stereo not shown) [Example 167, 3-((4-(5-chloro-3-methyl-2-(morpholin-2-ylmethyl)phenyl)thieno[3,2-d]pyrimidin-6-yl)methyl)-1-(2,2,2-trifluoroethyl)pyrimidine-2,4(1H,3H)-dione]: the IC50 was below 0.01 µM. `Cc1cc(Cl)cc(-c2ncnc3cc(CN4C(=O)C5CC5C4=O)sc23)c1CC1CNCCCO1` (stereo not shown) [Example 189, 3-((4-(2-((1,4-oxazepan-2-yl)methyl)-5-chloro-3-methylphenyl)thieno[3,2-d]pyrimidin-6-yl)methyl)-3-azabicyclo[3.1.0]hexane-2,4-dione] gave an IC50 below 0.01 µM. In turn, `COC(=O)C1CC1C(=O)NCc1cc2ncnc(-c3cc(Cl)cc(C)c3C[C@H]3OCCN[C@@H]3C)c2s1` (stereo partly drawn) [Example 161, methyl 2-(((4-(5-chloro-3-methyl-2-(((2R,3R)-3-methylmorpholin-2-yl)methyl)phenyl)thieno[3,2-d]pyrimidin-6-yl)methyl)carbamoyl)cyclopropane-1-carboxylate] registered a concentration for half-maximal inhibition (IC50) of 0.01 to 0.1 µM. Consider `Cc1cc(Cl)cc(-c2ncnc3cc(CN4C(=O)COC4=O)sc23)c1CC1CNCCO1` (stereo not shown) [Example 178, 3-((4-(5-chloro-3-methyl-2-(morpholin-2-ylmethyl)phenyl)thieno[3,2-d]pyrimidin-6-yl)methyl)oxazolidine-2,4-dione], for which the IC50 is below 0.01 µM.

`Cc1cc(Cl)cc(-c2ccnc3cc(CN4C(=O)CN(C)C4=O)sc23)c1CC1CNCCO1` (stereo not shown) [Example 117, 3-((7-(5-chloro-3-methyl-2-(morpholin-2-ylmethyl)phenyl)thieno[3,2-b]pyridin-2-yl)methyl)-1-methylimidazolidine-2,4-dione]: the IC50 is below 0.01 µM.

Regarding `CC1(C)C2C(=O)N(Cc3cc4ncnc(-c5cc(Cl)cc(Cl)c5CC5CNCCO5)c4s3)C(=O)C21` (stereo not shown) [Example 226, 3-((4-(3,5-dichloro-2-(morpholin-2-ylmethyl)phenyl)thieno[3,2-d]pyrimidin-6-yl)methyl)-6,6-dimethyl-3-azabicyclo[3.1.0]hexane-2,4-dione], the half-inhibitory concentration (IC50) is below 0.01 µM. The figure for `CCN1CCN(Cc2c(C)cc(Cl)cc2-c2ccnc3cc(CN4C(=O)C5C(C4=O)C5(C)C)sc23)[C@@H](C)C1` (stereo partly drawn) [Example 24, 3-((7-(5-chloro-2-(((S)-4-ethyl-2-methylpiperazin-1-yl)methyl)-3-methylphenyl)thieno[3,2-b]pyridin-2-yl)methyl)-6,6-dimethyl-3-azabicyclo[3.1.0]hexane-2,4-dione] is below 0.01 µM; for `Cc1cc(Cl)cc(-c2ncnc3cc(CN4C(=O)C5CC5C4=O)sc23)c1C[C@@H]1CNCC(C)(C)O1` (stereo partly drawn) [Example 216, 3-((4-(5-chloro-2-(((R)-6,6-dimethylmorpholin-2-yl)methyl)-3-methylphenyl)thieno[3,2-d]pyrimidin-6-yl)methyl)-3-azabicyclo[3.1.0]hexane-2,4-dione] it is below 0.01 µM.

`Cc1cc(Cl)cc(-c2ncnc3cc(CN4C(=O)CCCC4=O)sc23)c1CC1CNCCO1` (stereo not shown) [Example 163, 1-((4-(5-chloro-3-methyl-2-(morpholin-2-ylmethyl)phenyl)thieno[3,2-d]pyrimidin-6-yl)methyl)piperidine-2,6-dione] yielded an IC50 below 0.01 µM.

In turn, `CC1(C)CNCC(Cc2c(Cl)cc(Cl)cc2-c2ncnc3cc(CN4C(=O)CCC4=O)sc23)O1` (stereo not shown) [Example 211, 1-((4-(3,5-dichloro-2-((6,6-dimethylmorpholin-2-yl)methyl)phenyl)thieno[3,2-d]pyrimidin-6-yl)methyl)pyrrolidine-2,5-dione] had an IC50 below 0.01 µM. Under `Cc1cc(Cl)cc(-c2ncnc3cc(CN4C(=O)CC[C@@H]4CF)sc23)c1C[C@@H]1CNCC(C)(C)O1` [Example 219, (R)-1-((4-(5-chloro-2-(((R)-6,6-dimethylmorpholin-2-yl)methyl)-3-methylphenyl)thieno[3,2-d]pyrimidin-6-yl)methyl)-5-(fluoromethyl)pyrrolidin-2-one] stands below 0.01 µM; under `Cc1cc(Cl)cc(-c2ccnc3cc(CN4C(=O)C5CC5C4=O)sc23)c1CN1CCNC(=O)C1C` (stereo not shown) [Example 40, 3-((7-(5-chloro-3-methyl-2-((2-methyl-3-oxopiperazin-1-yl)methyl)phenyl)thieno[3,2-b]pyridin-2-yl)methyl)-3-azabicyclo[3.1.0]hexane-2,4-dione], 0.01 to 0.1 µM; under `Cc1cc(Cl)cc(-c2ccnc3cc(CN4C(=O)C5CCC5C4=O)sc23)c1CC1CNCCO1` (stereo not shown) [Example 110, 3-((7-(5-chloro-3-methyl-2-(morpholin-2-ylmethyl)phenyl)thieno[3,2-b]pyridin-2-yl)methyl)-3-azabicyclo[3.2.0]heptane-2,4-dione], below 0.01 µM. Under `Cc1cc(Cl)cc(-c2ncnc3cc(CN4C(=O)CSC4=O)sc23)c1CC1CNCCO1` (stereo not shown) [Example 171, 3-((4-(5-chloro-3-methyl-2-(morpholin-2-ylmethyl)phenyl)thieno[3,2-d]pyrimidin-6-yl)methyl)thiazolidine-2,4-dione] stands below 0.01 µM. Under `Cc1cc(Cl)cc(-c2ncnc3cc(CN4C(=O)C5C(C4=O)C5(C)C)sc23)c1CC1(C)CNCCO1` (stereo not shown) [Example 157, 3-((4-(5-chloro-3-methyl-2-((2-methylmorpholin-2-yl)methyl)phenyl)thieno[3,2-d]pyrimidin-6-yl)methyl)-6,6-dimethyl-3-azabicyclo[3.1.0]hexane-2,4-dione] stands 0.01 to 0.1 µM; under `O=C1CCC(=O)N1Cc1cc2nccc(-c3cc(Cl)cc(Cl)c3CC3CNCCO3)c2s1` (stereo not shown) [Example 127, 1-((7-(3,5-dichloro-2-(morpholin-2-ylmethyl)phenyl)thieno[3,2-b]pyridin-2-yl)methyl)pyrrolidine-2,5-dione], below 0.01 µM; under `Cc1cc(Cl)cc(-c2ccnc3cc(Cn4c(=O)ccn(CC(F)(F)F)c4=O)sc23)c1CN1CCNCCC1=O` [Example 255, 3-((7-(5-chloro-3-methyl-2-((7-oxo-1,4-diazepan-1-yl)methyl)phenyl)thieno[3,2-b]pyridin-2-yl)methyl)-1-(2,2,2-trifluoroethyl)pyrimidine-2,4(1H,3H)-dione], 0.01 to 0.1 µM. Compound `Cc1cc(Cl)cc(-c2ncnc3cc(CN4C(=O)CCC4=O)sc23)c1CC1CNCCO1` (stereo not shown) [Example 153, 1-((4-(5-chloro-3-methyl-2-(morpholin-2-ylmethyl)phenyl)thieno[3,2-d]pyrimidin-6-yl)methyl)pyrrolidine-2,5-dione] came in with an IC50 below 0.01 µM.
